We go through 7 molecules from paper PMC3151248, “High-Throughput Identification of Potential Minor Histocompatibility Antigens by MHC Tetramer-Based Screening: Feasibility and Limitations” (PLoS ONE, 2011).

Peptide text beside a SMILES is read from it.

The subject of the first assay is pMHC tetramer positive T-cell lines. The note with it: 18 h.
Procedure: To examine the ligand sensitivity of the generated peptide specific cell lines, INF-γ production was measured after stimulation with T2 cells that were loaded with a range of peptide concentrations (Figure 4). In this assay (performed for 8 representative cell lines), peptide concentrations required for T-cell recognition were compared to those required for a previously identified T-cell clone that is specific for the HMHA-1H epitope.
HLA A2^+ T2 cells were pulsed with specific MiHA peptide. Peptide concentrations were titrated in 10-fold dilution steps starting from 10ug/ml. T-cell reactivity was analyzed by cytokine secretion in a standard IFN γ ELISA. Data are presented as cytokine concentration. Shown are eight representative generated T-cell lines and a high affinity control clone specific for HMHA-1H (open square).
MiHA specific T-cell lines (1×10^4) were stimulated with HLA-A2^+ T2 cells, EBV-LCLs or T-cell blasts (2,5×10^4) in 96 well plates for 18 h at 37°C and 5% CO2. Peptide pulsing was performed by incubating stimulator cells for 1 h with synthetic peptides (1 µg/ml) in IMDM containing 2% FCS and cells were washed twice before use. Cytokine release was measured by IFN γ ELISA (Sanquin) according to the manufacturer's instructions.
`CC(C)C[C@H](NC(=O)[C@H](CC(C)C)NC(=O)[C@H](CC(=O)O)NC(=O)[C@H](CC(=O)O)NC(=O)[C@H](Cc1c[nH]cn1)NC(=O)[C@H](CC(C)C)NC(=O)[C@@H](N)C(C)C)C(=O)N[C@@H](CCC(=O)O)C(=O)N[C@@H](C)C(=O)O` [P46 HMHA1VLH] (H-VLHDDLLEA-OH) returned an IC50 of around 0.05 nM. On the same count and under the same terms, with `CC[C@H](C)[C@H](NC(=O)[C@@H](N)CO)C(=O)N[C@@H](CCC(N)=O)C(=O)N[C@@H](CC(N)=O)C(=O)N[C@@H](Cc1ccc(O)cc1)C(=O)N[C@@H](Cc1c[nH]cn1)C(=O)N1CCC[C@H]1C(=O)N[C@@H](Cc1ccccc1)C(=O)N[C@@H](C)C(=O)O` [P37 DOCK2SIQ] (H-SIQNYHPFA-OH) the figure was around 500 nM; with `CC(C)C[C@H](NC(=O)[C@@H]1CCCN1C(=O)[C@H](CC(C)C)NC(=O)[C@H](C)NC(=O)[C@H](C)NC(=O)[C@H](Cc1c[nH]c2ccccc12)NC(=O)[C@H](CC(C)C)NC(=O)[C@@H]1CCCN1C(=O)[C@H](CC(C)C)NC(=O)[C@H](CC(C)C)NC(=O)[C@@H](N)CCCNC(=N)N)C(=O)O` [P104 ZFP36L2RLL] (H-RLLPLWAALPL-OH), around 500 nM.

Take `CSCC[C@H](NC(=O)[C@@H](N)CO)C(=O)N[C@@H](CS)C(=O)N[C@@H](CCCNC(=N)N)C(=O)N[C@@H](Cc1ccccc1)C(=O)N[C@@H](CO)C(=O)N1CCC[C@H]1C(=O)N[C@@H](CC(C)C)C(=O)N[C@H](C(=O)N[C@@H](CC(C)C)C(=O)O)[C@@H](C)O` [P309 HSPA6SMC] (H-SMCRFSPLTL-OH): the IC50 was around 5 nM. Same read-out and setting: under `CC[C@H](C)[C@H](N)C(=O)N[C@@H](CCSC)C(=O)N[C@@H](C)C(=O)N[C@H](C(=O)N[C@@H](CCC(=O)O)C(=O)N[C@@H](CC(C)C)C(=O)N[C@@H](C)C(=O)N[C@@H](CCC(=O)O)C(=O)N[C@@H](CC(C)C)C(=O)O)[C@@H](C)CC` [P218 MAP4K1IMA] (H-IMAIELAEL-OH) stands around 0.05 nM.

Still in this assay, the particulars now being: read-out: IC50, peptide concentration required for T-cell recognition (IFN γ production); HLA-A2+ T2 cells pulsed with peptide, 10-fold dilution steps from 10ug/ml; 18 h; IFN γ ELISA; value given for the group of cell lines.
For `CSCC[C@H](NC(=O)[C@@H](N)CCCCN)C(=O)N[C@@H](CC(N)=O)C(=O)N[C@H](C(=O)N[C@@H](Cc1ccccc1)C(=O)N[C@@H](CC(=O)O)C(=O)N[C@H](C(=O)N[C@@H](CC(N)=O)C(=O)N[C@@H](CC(C)C)C(=O)O)[C@@H](C)O)C(C)C` [P203 ATP2A3KMN] (H-KMNVFDTNL-OH), the IC50 is around 500 nM. Still for that read-out and setting: under `CC[C@H](C)[C@H](NC(=O)[C@H](CC(=O)O)NC(=O)[C@H](CCSC)NC(=O)CNC(=O)[C@H](Cc1ccccc1)NC(=O)[C@H](CC(C)C)NC(=O)[C@H](CCC(=O)O)NC(=O)[C@H](Cc1c[nH]cn1)NC(=O)[C@H](CC(C)C)NC(=O)[C@@H](NC(=O)[C@@H](N)CCCCN)C(C)C)C(=O)O` [P91 FLT3KVL] (H-KVLHELFGMDI-OH) stands around 5 nM.
